Laboratory results: ChEMBL document CHEMBL1201862, “PubChem BioAssay data set” (2004)
Calls of active or inactive are those of the source.

Legend:
[1] = molecular target: Muscarinic acetylcholine receptor M5 (Rattus norvegicus, UniProt P08911); assay: Discovery of Novel Antagonists of Muscarinic Receptor M5: Counterscreen against RAT M5.; format: functional
[2] = molecular target: Muscarinic acetylcholine receptor M5 (Homo sapiens, UniProt P08912); assay: inhibition of ACh-evoked human M5 signalling – cell-based, CHO-K1 hM5, Fluo-4 calcium flux, ACh EC80, dose response (AID 743110); format: functional
[3] = molecular target: G-protein coupled receptor 183 (Homo sapiens, UniProt P32249); assay: SAR confirmation of small molecule antagonists of the EBI2 receptor via a luminescent beta-arrestin assa.; format: functional
Cytochrome P450 3A4 [4] = molecular target: T1, Cytochrome P450 3A4 (Homo sapiens, UniProt P08684); conditions: Potency
Cytochrome P450 2C19 [5] = molecular target: T2, Cytochrome P450 2C19 (Homo sapiens, UniProt P33261); assay: qHTS Assay for Inhibitors and Substrates of Cytochrome P450 2C19. [Related pubchem assays: 410 ]; format: ADME; conditions: read-out: Potency
Cytochrome P450 2C19 [6] = molecular target: T2, Cytochrome P450 2C19; assay: Cytochrome panel assay with activity outcomes. Panel member name: p450-cyp2c19 Compounds with AC50 equal or less than 10 uM are considered active; format: functional; conditions: read-out: AC50
Streptococcus = assay: GAS UMAA2166 growth inhibition – luminescence, BacTiterGlo, counter-screen for streptokinase expression inhibitor project, dose response (AID 1915); format: functional, organism-based; conditions: Streptococcus;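 further: potency for reduction of bacterial viability or growth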
Cytochrome P450 3A4 [7] = molecular target: T1, Cytochrome P450 3A4
[8] = molecular target: Voltage-gated inwardly rectifying potassium channel KCNH2 (Homo sapiens, UniProt Q12809); conditions: Potency;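 further: confirmatory quantitative high-throughput screen measuring inhibition of hERG channel activity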
Streptokinase A = molecular target: T3, Streptokinase A (Streptococcus pyogenes serotype M1, UniProt P10520); assay: viability-normalized secreted streptokinase activity reduction – plasminogen activation absorbance, OD405, dose response (AID 1914); format: functional, Streptococcus pyogenes M1 GAS;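 further: secreted streptokinase activity via plasminogen activation per viability signal from cell pellet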
T3 sequence (P10520 whole entry): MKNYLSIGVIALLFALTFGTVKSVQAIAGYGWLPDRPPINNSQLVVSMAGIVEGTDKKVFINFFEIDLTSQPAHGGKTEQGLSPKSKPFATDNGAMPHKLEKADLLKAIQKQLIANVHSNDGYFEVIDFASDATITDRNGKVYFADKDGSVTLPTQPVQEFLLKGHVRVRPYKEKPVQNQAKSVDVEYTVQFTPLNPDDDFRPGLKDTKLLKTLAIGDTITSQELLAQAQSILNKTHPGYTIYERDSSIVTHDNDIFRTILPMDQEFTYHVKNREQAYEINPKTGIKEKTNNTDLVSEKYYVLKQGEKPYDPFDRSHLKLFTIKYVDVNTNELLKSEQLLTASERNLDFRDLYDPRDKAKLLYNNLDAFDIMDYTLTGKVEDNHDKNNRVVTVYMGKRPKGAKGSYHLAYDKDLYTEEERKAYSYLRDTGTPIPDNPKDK

[9] = tested on: Streptococcus sp. 'group A'; assay: Streptococcus pyogenes SK(-)GAS viability under kanamycin – luminescence, BacTiterGlo, confirmation, counter-screen for streptokinase expression inhibitor project, dose response (AID 1900); format: functional, organism-based; conditions: Streptococcus sp. 'group A'
[10] = antifungal activity, alamar blue, dry powder, counter-screen for C. neoformans cell wall antifungals, dose response (AID 743128); format: functional, organism-based
[11] = Reduced DLD-1 viability, concentration-response, CellTiter-Glo luminescence (AID 1117352); format: functional
[12] = RKO cell viability reduction, dose response, CellTiter-Glo luminescence (AID 1117322); format: functional
[13] = HCT116 cell viability decrease, GSK3B pretreatment – CellTiter-Glo, IC50, dose response (AID 1117339); format: functional; conditions: HCT-116
[14] = SNU-C1 cell viability reduction, dose response, CellTiter-Glo luminescence (AID 1117323); format: functional, cell-based
[15] = CellTiter-Glo luminescence survival assay, SW480 colon tumor line, concentration-response curve, half-maximal inhibitory concentration (AID 1117338); format: functional
[16] = cytotoxicity toward HCT116 cells – cell-based, CellTiter-Glo luminescence, IC50, dose response (AID 1117332); format: functional; conditions: HCT-116
[17] = cytotoxicity toward Colo320 cells – cell-based, CellTiter-Glo luminescence, IC50, dose response (AID 1117334); format: functional; conditions: COLO 320
[18] = viability loss in Vero cells – cytotoxicity control for Vif-APOBEC3G degradation inhibitor project, dose response (AID 1117358); format: functional; conditions: Vero
A-375 [19] = assay: proliferation inhibition in MITF-low A375 cells – cell-based, cherry-pick samples, set 2, counter-screen for MITF modulator project, dose response (AID 540335); format: functional; conditions: Homo sapiens
[20] = molecular target: Heat shock protein HSP 90-alpha (Homo sapiens, UniProt P07900); assay: Luminescence-based dose response biochemical high throughput screening assay for inhibitors of the Heat Shock Protein 90 (HSP90). [Related pubchem assays: 1831 (Summary AID.), 1846 (Confirmation screen.), 1789 (Primary screen.)]
A-375 [21] = assay: MITF: Counter assay: A375 proliferation Measured in Cell-Based System Using Plate Reader - 2084-03_Inhibitor_Dose_DryPowder_Activity. [Related pubchem assays (depositor defined):AID488944]; format: functional; conditions: Homo sapiens
[22] = A Cell-Based Confirmatory Screen for Compounds that Inhibit VEEV, TC-83 (3).; format: functional
[23] = A Cell-Based Confirmatory Screen for Compounds that Inhibit VEEV TC-83 (4).; format: functional
[24] = A Cell-Based Confirmatory Screen for Compounds that Inhibit VEEV, TC-83 (5).; format: functional
[25] = toxicity to A549 lung cells – cell-based, plate reader, dry powder, set 6, cytotoxicity control, dose response (AID 743312); format: functional
[26] = loss of HEK293T viability via ATP – cell-based, plate reader, dry powder, set 10, cytotoxicity control, dose response (AID 743315); format: functional; conditions: HEK293
cells = conditions: HEK293

T2 sequence (P33261 whole entry): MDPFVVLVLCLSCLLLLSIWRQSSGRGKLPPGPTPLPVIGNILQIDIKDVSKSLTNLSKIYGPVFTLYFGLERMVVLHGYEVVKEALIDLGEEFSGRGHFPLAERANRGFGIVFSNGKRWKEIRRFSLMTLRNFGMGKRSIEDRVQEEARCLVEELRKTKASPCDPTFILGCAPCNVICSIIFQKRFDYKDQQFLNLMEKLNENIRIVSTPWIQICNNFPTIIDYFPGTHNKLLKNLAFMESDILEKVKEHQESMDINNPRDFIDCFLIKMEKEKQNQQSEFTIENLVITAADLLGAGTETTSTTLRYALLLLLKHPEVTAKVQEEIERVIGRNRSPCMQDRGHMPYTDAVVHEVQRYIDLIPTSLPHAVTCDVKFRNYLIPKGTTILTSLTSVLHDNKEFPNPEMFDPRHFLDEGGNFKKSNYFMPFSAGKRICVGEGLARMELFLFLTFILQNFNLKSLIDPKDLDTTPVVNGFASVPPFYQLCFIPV
T1 sequence (P08684 whole entry): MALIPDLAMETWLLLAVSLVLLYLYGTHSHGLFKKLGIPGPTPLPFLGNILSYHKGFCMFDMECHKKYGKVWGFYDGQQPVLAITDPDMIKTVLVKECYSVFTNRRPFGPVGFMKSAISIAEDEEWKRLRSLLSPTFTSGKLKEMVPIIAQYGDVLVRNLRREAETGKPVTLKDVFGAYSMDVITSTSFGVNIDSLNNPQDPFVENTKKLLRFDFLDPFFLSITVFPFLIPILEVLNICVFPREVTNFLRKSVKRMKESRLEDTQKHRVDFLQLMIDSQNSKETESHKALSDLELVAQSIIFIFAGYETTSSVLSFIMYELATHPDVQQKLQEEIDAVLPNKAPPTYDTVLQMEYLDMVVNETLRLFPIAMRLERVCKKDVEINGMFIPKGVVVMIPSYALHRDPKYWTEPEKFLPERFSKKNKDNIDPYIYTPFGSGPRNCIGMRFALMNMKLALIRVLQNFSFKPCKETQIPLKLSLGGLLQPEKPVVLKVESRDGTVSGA
G-protein coupled receptor 183, sequence (P32249 whole entry): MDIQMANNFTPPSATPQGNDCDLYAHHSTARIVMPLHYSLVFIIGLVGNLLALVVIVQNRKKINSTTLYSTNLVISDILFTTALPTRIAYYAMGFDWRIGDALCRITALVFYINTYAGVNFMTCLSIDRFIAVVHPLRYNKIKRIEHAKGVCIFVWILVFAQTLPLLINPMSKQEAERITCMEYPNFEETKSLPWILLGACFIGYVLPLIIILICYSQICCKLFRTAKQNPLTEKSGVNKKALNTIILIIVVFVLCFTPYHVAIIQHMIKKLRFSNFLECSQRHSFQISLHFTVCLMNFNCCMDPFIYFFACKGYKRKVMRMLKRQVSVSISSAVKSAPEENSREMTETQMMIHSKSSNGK
Voltage-gated inwardly rectifying potassium channel KCNH2, sequence (Q12809 whole entry): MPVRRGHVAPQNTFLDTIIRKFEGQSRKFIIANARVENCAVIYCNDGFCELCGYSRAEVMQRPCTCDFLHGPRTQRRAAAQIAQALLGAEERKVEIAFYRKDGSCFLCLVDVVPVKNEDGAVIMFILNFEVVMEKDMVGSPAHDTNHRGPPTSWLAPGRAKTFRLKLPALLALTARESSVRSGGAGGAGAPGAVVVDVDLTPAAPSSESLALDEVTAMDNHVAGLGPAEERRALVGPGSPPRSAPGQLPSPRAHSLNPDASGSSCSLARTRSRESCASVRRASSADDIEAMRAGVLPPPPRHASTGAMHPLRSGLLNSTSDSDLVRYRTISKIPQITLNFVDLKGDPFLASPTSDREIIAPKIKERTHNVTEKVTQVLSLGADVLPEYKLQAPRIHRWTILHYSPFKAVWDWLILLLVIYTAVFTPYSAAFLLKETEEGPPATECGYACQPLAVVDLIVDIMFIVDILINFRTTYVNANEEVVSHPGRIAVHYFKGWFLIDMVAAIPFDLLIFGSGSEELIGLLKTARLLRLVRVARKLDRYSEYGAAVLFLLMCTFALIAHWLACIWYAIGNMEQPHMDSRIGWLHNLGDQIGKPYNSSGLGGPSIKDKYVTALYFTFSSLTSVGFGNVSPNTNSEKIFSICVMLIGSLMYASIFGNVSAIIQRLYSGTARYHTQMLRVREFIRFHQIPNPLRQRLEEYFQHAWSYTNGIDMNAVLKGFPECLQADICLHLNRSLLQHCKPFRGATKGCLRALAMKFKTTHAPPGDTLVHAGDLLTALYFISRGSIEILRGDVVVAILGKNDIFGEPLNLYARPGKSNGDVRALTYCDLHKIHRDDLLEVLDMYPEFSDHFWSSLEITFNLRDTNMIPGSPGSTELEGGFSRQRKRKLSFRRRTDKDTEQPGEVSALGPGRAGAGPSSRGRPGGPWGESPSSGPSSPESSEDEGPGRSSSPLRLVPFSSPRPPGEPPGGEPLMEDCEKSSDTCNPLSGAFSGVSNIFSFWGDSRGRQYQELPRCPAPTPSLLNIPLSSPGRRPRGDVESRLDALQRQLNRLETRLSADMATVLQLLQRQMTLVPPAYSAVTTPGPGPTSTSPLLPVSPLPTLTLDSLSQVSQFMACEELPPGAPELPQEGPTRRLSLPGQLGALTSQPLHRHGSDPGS
Muscarinic acetylcholine receptor M5 (Rattus norvegicus, UniProt P08911), sequence (P08911 whole entry): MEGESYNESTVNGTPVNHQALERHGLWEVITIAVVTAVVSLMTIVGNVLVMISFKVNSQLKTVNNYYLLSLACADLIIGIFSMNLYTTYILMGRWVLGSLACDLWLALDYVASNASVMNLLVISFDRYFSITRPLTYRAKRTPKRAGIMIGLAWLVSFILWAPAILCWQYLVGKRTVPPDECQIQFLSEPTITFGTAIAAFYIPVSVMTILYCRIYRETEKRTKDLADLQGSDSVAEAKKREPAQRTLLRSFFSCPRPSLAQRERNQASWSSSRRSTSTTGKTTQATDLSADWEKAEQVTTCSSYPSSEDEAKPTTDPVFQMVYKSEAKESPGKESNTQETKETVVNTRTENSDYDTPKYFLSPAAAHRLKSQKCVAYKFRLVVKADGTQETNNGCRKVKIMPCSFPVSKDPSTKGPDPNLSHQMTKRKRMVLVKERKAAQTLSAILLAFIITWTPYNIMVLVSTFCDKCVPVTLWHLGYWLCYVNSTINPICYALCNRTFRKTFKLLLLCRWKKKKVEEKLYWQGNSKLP
Muscarinic acetylcholine receptor M5 (Homo sapiens, UniProt P08912), sequence (P08912 whole entry): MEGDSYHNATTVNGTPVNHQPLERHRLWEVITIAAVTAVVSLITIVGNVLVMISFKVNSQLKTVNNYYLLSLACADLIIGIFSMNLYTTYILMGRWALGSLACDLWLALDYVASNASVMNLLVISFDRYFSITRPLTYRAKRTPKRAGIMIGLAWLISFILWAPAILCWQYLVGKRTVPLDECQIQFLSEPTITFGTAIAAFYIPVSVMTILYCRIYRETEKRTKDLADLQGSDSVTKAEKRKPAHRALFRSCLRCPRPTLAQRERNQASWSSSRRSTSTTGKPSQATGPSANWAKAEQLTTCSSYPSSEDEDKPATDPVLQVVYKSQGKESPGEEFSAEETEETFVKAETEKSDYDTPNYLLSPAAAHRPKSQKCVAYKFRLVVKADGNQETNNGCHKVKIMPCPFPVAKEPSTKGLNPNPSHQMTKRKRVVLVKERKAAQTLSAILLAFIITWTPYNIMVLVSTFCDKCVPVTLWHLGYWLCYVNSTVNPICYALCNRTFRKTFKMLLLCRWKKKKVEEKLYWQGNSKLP

CC(=O)c1cccc(NCc2cc(C(=O)N(C)C(C)c3ccccn3)no2)c1 (centres undefined)
IC50 [1]: 7.11 µM (active) | IC50 [2]: 6.77 µM (active)

COc1cc(CN2CCN(C(=O)/C=C/c3ccc(Br)cc3)CC2)cc(OC)c1
IC50 [3]: 0.00364 µM (active)

CCCN(CC1CC1)c1nc(C)nc(Nc2c(Cl)cc(Cl)cc2Cl)c1Cl
AC50 (Cytochrome P450 3A4 [4]): 12.6 µM (inconclusive) | AC50 (Cytochrome P450 2C19 [5]): 7.94 µM (inconclusive) | AC50 (Cytochrome P450 2C19 [6]): 31.6 µM (inconclusive) | EC50 (Streptococcus): 15.2 µM (active) | AC50 (Cytochrome P450 3A4 [7]): 15.8 µM (inconclusive) | AC50 [8]: 14.1 µM (inconclusive) | EC50 (Streptokinase A): 1.31 µM (active) | EC50 [9]: 1.39 µM (active)

Cc1ccc(OCCn2cnc3ccccc32)cc1
AC50 [10]: 38.9 µM (active)

C[S+](CC[C@H](N)C(=O)O)C[C@H]1O[C@@H](n2cnc3c(N)ncnc32)[C@H](O)[C@H]1O (some centres undefined)
IC50 [11]: > 20 µM (inactive) | IC50 [12]: > 20 µM (inactive) | IC50 [13]: > 20 µM (inactive) | IC50 [14]: > 20 µM (inactive) | IC50 [15]: > 20 µM (inactive) | IC50 [16]: > 20 µM (inactive) | IC50 [17]: > 20 µM (inactive)

COc1c(OC(C)=O)ccc(/C=C/c2ccc3ccccc3n2)c1[N+](=O)[O-]
CC50 [18]: 33.2 µM (active)

COC(=O)c1ccc(COc2ccc3c(c2)CCC3)o1
AC50 (A-375 [19]): > 35 µM (active) | IC50 [20]: > 7 µM (active) | AC50 (A-375 [21]): > 35 µM (active)

CN1CCN(Cc2nc3ccc([N+](=O)[O-])cc3c(=O)n2-c2ccccc2F)CC1
IC50 [22]: < 0.72 µM (active) | IC50 [23]: 0.74 µM (active) | IC50 [24]: 0.65 µM (active)

CC(C)(C)c1ccc(OCCn2cnc3ccccc32)cc1
AC50 [25]: 23.9 µM (active) | AC50 [26]: 15.9 µM (active) | AC50 (cells): 20.9 µM (active)
